Experimental data as given in patent US9029531B2 (Agios Pharmaceuticals, Inc., priority 2012, dated 2015).

target: T1, glutaminase (GAC) (Homo sapiens, UniProt O94925); test: Glutaminase coupled endpoint enzymatic assay (Example A); format: biochemical; details: inhibition of glutaminase; assay of Example A or Example B
T1 sequence (O94925 55-598 isoform O94925-3 limits assumed): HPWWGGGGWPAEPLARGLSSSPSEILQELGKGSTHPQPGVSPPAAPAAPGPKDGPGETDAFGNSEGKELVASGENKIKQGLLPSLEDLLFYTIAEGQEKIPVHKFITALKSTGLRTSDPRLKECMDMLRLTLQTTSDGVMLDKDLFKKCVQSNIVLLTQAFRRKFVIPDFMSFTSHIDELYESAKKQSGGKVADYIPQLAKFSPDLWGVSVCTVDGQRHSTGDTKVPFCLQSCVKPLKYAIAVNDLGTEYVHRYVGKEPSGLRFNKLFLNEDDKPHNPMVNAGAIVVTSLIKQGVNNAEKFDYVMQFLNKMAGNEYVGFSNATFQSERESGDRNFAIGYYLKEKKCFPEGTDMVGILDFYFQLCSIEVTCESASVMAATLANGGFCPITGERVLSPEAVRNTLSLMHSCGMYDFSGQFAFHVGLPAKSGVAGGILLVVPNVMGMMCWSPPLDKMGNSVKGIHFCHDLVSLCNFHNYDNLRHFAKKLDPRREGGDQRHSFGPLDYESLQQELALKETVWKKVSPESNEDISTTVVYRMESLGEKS
From the text: In certain embodiments, exemplary compounds of Formula I include the compounds described in Table 1 and in the Examples. A compound described herein may be tested for its ability to inhibit glutaminase, e.g., by an assay as described in the Examples. For simplicity, the inhibition activity of these compounds is represented as an IC50 tested in an assay of Example A or Example B in Table 1. […] “N/A” refers to compounds wherein the IC50 is unavailable.
In this example, the enzymatic activity of glutaminase is measured through a coupled endpoint assay. Glutamine and phosphate are supplied to GAC at a concentration equal to Km and AC50, respectively, and GAC concentration is adjusted to give a linear reaction for 60 minutes. The glutamate produced is converted to 2-OG by a kinetic excess of glutamate dehydrogenase. This second step is configured for 2×Km for NAD, since excess NAD is inhibitory. However, a kinetic excess of the third coupling enzyme, diaphorase, recycles NAD from NADH to keep the NAD concentration constant during the timecourse of the assay. Diaphorase, also supplied in kinetic excess, oxidizes NADH produced by GDH back to NAD with the concomitant reduction of rezasurin to the highly fluorescent resorufin. Resorufin in measured after the assay is stopped with SDS by Ex544/Em590. A reduction in the signal indicates inhibition of some component of the coupled enzyme system. Prospective hits are counterscreened against GDH/diaphorase alone to remove hits to the coupling enzyme system in a second assay.
2. Buffers • 2× Buffer (300 mM NaCl, 100 mM HEPES pH 8.5, 0.1% BSA, 0.5 mM EDTA, 100 mM sodium phosphate pH 8.5) • 5× Substrate Mix (1× Buffer final concentration, with 13 mM glutamine, 100 μM resazurin, 50 μg/ml diaphorase) • 1.2× Enzyme Mix (1× Buffer final concentration, with 0.875 μg/ml GAC, 1.56 mM NAD, 6.25 units/ml GDH) • Stop Mix (6% SDS in ddH2O) Reaction Procedure • 1. Add 1 μl compound in 100% DMSO • 2. Add 40 μl of Enzyme Mix and incubate for 60 minute at room temperature • 3. Add 10 μl of Substrate Mix to start reaction • 4. Stop reaction with 25 μl of 6% SDS and read Ex544 Em 590

| IC50 [nM] | Structure (SMILES) |
| --- | --- |
| 100 to 500 | O=C(Cc1cccc(Br)c1)Nc1nnc([C@H]2CCC[C@H](c3nnc(NC(=O)Cc4cccc(Br)c4)s3)C2)s1 [Compound 220, N,N′-(5,5′-((1S,3S)-cyclohexane-1,3-diyl)bis(1,3,4-thiadiazole-5,2-diyl))bis(2-(3-bromophenyl)acetamide)] |
| < 100 | COc1ccc(CC(=O)Nc2nnc([C@H]3CCC[C@H](c4nnc(NC(=O)Cc5ccc(OC)nc5)s4)C3)s2)cn1 [Compound 221, N,N′-(5,5′-((1S,3S)-cyclohexane-1,3-diyl)bis(1,3,4-thiadiazole-5,2-diyl))bis(2-(6-methoxypyridin-3-yl)acetamide)] |
| < 100 | O=C(Cc1cscn1)Nc1nnc([C@H]2CCC[C@H](c3nnc(NC(=O)Cc4cscn4)s3)C2)s1 [Compound 222, N,N′-(5,5′-((1S,3S)-cyclohexane-1,3-diyl)bis(1,3,4-thiadiazole-5,2-diyl))bis(2-(thiazol-4-yl)acetamide)] |
| < 100 | COc1ccnc(CC(=O)Nc2nnc([C@H]3CCC[C@H](c4nnc(NC(=O)Cc5cc(OC)ccn5)s4)C3)s2)c1 [Compound 223, N,N′-(5,5′-((1S,3S)-cyclohexane-1,3-diyl)bis(1,3,4-thiadiazole-5,2-diyl))bis(2-(4-methoxypyridin-2-yl)acetamide)] |
| < 100 | COc1cc(CC(=O)Nc2nnc([C@H]3CCC[C@H](c4nnc(NC(=O)Cc5ccnc(OC)c5)s4)C3)s2)ccn1 [Compound 224, 2-(2-methoxypyridin-4-yl)-N-[5-[(1S,3S)-3-[5-[[2-(2-methoxypyridin-4-yl)acetyl]amino]-1,3,4-thiadiazol-2-yl]cyclohexyl]-1,3,4-thiadiazol-2-yl]acetamide] |
| < 100 | COc1ccc(CC(=O)Nc2nnc([C@H]3CCC[C@H](c4nnc(NC(=O)Cc5ccc(OC)cn5)s4)C3)s2)nc1 [Compound 225, N,N′-(5,5′-((1S,3S)-cyclohexane-1,3-diyl)bis(1,3,4-thiadiazole-5,2-diyl))bis(2-(5-methoxypyridin-2-yl)acetamide)] |
| < 100 | CCOc1ccc(CC(=O)Nc2nnc([C@H]3CCC[C@H](c4nnc(NC(=O)Cc5ccc(OCC)cn5)s4)C3)s2)nc1 [Compound 226, N,N′-(5,5′-((1S,3S)-cyclohexane-1,3-diyl)bis(1,3,4-thiadiazole-5,2-diyl))bis(2-(5-ethoxypyridin-2-yl)acetamide)] |
| < 100 | O=C(Cc1ccc(OC(F)F)cn1)Nc1nnc([C@H]2CCC[C@H](c3nnc(NC(=O)Cc4ccc(OC(F)F)cn4)s3)C2)s1 [Compound 228, N,N′-(5,5′-((1S,3S)-cyclohexane-1,3-diyl)bis(1,3,4-thiadiazole-5,2-diyl))bis(2-(5-(difluoromethoxy)pyridin-2-yl)acetamide)] |
| < 100 | N#Cc1cccc(CC(=O)Nc2nnc([C@H]3CCC[C@H](c4nnc(NC(=O)Cc5cccc(C#N)n5)s4)C3)s2)n1 [Compound 229, N,N′-(5,5′-((1S,3S)-cyclohexane-1,3-diyl)bis(1,3,4-thiadiazole-5,2-diyl))bis(2-(6-cyanopyridin-2-yl)acetamide)] |
| 1000 to 2000 | O=C(Cc1ccncn1)Nc1nnc([C@H]2CCC[C@H](c3nnc(NC(=O)Cc4ccncn4)s3)C2)s1 [Compound 230, N,N′-(5,5′-((1S,3S)-cyclohexane-1,3-diyl)bis(1,3,4-thiadiazole-5,2-diyl))bis(2-(pyrimidin-4-yl)acetamide)] |
| 100 to 500 | O=C(Cc1cccnn1)Nc1nnc([C@H]2CCC[C@H](c3nnc(NC(=O)Cc4cccnn4)s3)C2)s1 [Compound 231, N,N′-(5,5′-((1S,3S)-cyclohexane-1,3-diyl)bis(1,3,4-thiadiazole-5,2-diyl))bis(2-(pyridazin-3-yl)acetamide)] |
| < 100 | Nc1cccc(CC(=O)Nc2nnc([C@H]3CCC[C@H](c4nnc(NC(=O)Cc5cccc(N)n5)s4)C3)s2)n1 [Compound 232, N,N′-(5,5′-((1S,3S)-cyclohexane-1,3-diyl)bis(1,3,4-thiadiazole-5,2-diyl))bis(2-(6-aminopyridin-2-yl)acetamide)] |
